This note sets out measurements from patent US7943643B2, “Aryl substituted pyridines and the use thereof” (Purdue Pharma L.P., priority 2001, dated 2011).

This assay addresses rBIIa/beta 1 sodium channels (Rattus norvegicus, UniProt P04775). As to the kind of experiment: Electrophysiological assay, two-electrode voltage clamp in Xenopus oocytes. Type of assay: cell-based. The note with it: apparent inhibition constant from single point inhibition data; inactivated-state voltage protocol; channels expressed in Xenopus oocytes; read-out: RBIIA/β1 Ki. Here is the method: Electrophysiological Assay:
Electrophysiological Assay was used to measure potencies of compounds of the present invention rBIIa/beta 1 sodium channels expressed in Xenopus oocytes.
Preparation of cRNA encoding cloned rat brain type IIa (rBIIa) and beta 1 (β1): cDNA clones encoding the rat brain beta 1 subunit were cloned in house using standard methods, and mRNA were prepared by standard methods. mRNA encoding rBIIa was provided by Dr. A. Golden (UC Irvine). The mRNAs were diluted and stored at −80° C. in 1 μL aliquots until injection.
Preparation of oocytes: Mature female Xenopus laevis were anaesthetized (20-40 min) using 0.15% 3-aminobenzoic acid ethyl ester (MS-222) following established procedures (Woodward, R. M., et al., Mol. Pharmacol. 41:89-103 (1992)).
Two to six ovarian lobes were surgically removed. Oocytes at developmental stages V-VI were dissected from the ovary, oocytes were still surrounded by enveloping ovarian tissues. Oocytes were defolliculated on the day of surgery by treatment with collagenase (0.5 mg/mL Sigma Type I, or Boehringer Mannheim Type A, for 0.5-1 hr). Treated oocytes were vortexed to dislodge epithelia, washed repeatedly and stored in Barth's medium containing 88 mM NaCl, 1 mM KCl, 0.41 mM CaCl2, 0.33 mM Ca(NO3)2, 0.82 mM MgSO4, 2.4 mM NaHCO3, 5 mM HEPES, pH 7.4 adjusted with 0.1 mg/mL gentamycin sulphate.
Micro-injection of oocytes: Defolliculated oocytes were micro-injected using a Nanoject injection system (Drummond Scientific Co., Broomall, Pa.). Injection pipettes were beveled to minimize clogging. Tip diameter of injection pipettes was 15-35 μm. Oocytes were microinjected with approximately 50 nL 1:10 ratio mixtures of cRNAs for rBIIa and beta 1 respectively.
Electrophysiology: Membrane current responses were recorded in frog Ringer solution containing 115 mM NaCl, 2 mM KCl, 1.8 mM CaCl2, 5 mM HEPES, pH 7.4. Electrical recordings were made using a conventional two-electrode voltage clamp (Dagan TEV-200) over periods ranging between 1-7 days following injection. The recording chamber was a simple gravity fed flow-through chamber (volume […] depending on adjustment of aspirator). Oocytes were placed in the recording chamber, impaled with electrodes and continuously perfused (5-15 mL min^−1) with frog Ringer's solution. The tested compounds were applied by bath perfusion.
Voltage protocols for evoking sodium channel currents: The standard holding potential for whole oocyte clamp was −120 mV. Standard current-voltage relationships were elicited by 40 ms depolarizing steps starting from −60 mV to +50 mV in 10 mV increments. Peak currents were measured as the maximum negative current after depolarizing voltage steps. The voltage from maximum current response was noted and used for the next voltage protocol.
The purpose was to find compounds that are state dependent modifiers of neuronal sodium channels. Preferably, the compounds have a low affinity for the rested/closed state of the channel, but a high affinity for the inactivated state. The following voltage protocol was used to measure a compounds affinity for the inactivated state. Oocytes were held at a holding potential of −120 mV. At this membrane voltage, nearly all of the channels would be in the closed state. Then a 4 second depolarization was made to the voltage where the maximum current was elicited. At the end of this depolarization, nearly all the channels would be in the inactivated state. A 10 ms hyperpolarizing step was then made in order to remove some channels from the inactivated state. A final depolarizing test pulse was used to assay the sodium current after this prolonged depolarization (see analysis below). Sodium currents were measured at this test pulse before and after the application of the tested compound. Data was acquired using pClamp 8.0 software and analyzed with clampfit software (Axon instruments). […]
On the technique in general: Two-electrode voltage clamp holds a large cell at a set potential and records current.

pKi: −log10 of the molar value.

For `NC(=O)c1ccc(-c2ccc3ccccc3c2)nc1` [2-(2-naphthyl)pyridine-5-carboxamide, 2-(2-Naphthyl)pyridine-5-carboxamide], the pKi was 4.55. The same measure for `NC(=O)c1ccnc(-c2ccc(-c3ccccc3)cc2)c1` [2-(2-phenylphenyl)pyridine-4-carboxamide, 2-(4-Phenylphenyl)pyridine-4-carboxamide]: 4.60; for `NC(=O)c1ccc(-c2ccc(-c3ccccc3)cc2)nc1` [2-(2-phenylphenyl)pyridine-5-carboxamide, 2-(4-Phenylphenyl)pyridine-5-carboxamide]: 4.39; for `COc1ccc(-c2cc(C(N)=O)ccn2)cc1` [2-(4-Methoxyphenyl)pyridine-4-carboxamide]: 5.21. The same measure for `COc1ccc(-c2ccc(C(N)=O)cn2)cc1` [2-(4-Methoxyphenyl)pyridine-5-carboxamide]: 4.35; for `NC(=O)c1ccnc(-c2ccc(Oc3ccccc3)cc2)c1` [2-(4-Phenoxyphenyl)pyridine-4-carboxamide]: 4.65. As for `NC(=O)c1ccc(-c2ccc(Oc3ccccc3)cc2)nc1` [2-(4-Phenoxyphenyl)pyridine-5-carboxamide], the pKi is 4.84. In the case of `CSc1ccc(-c2ccc(C(N)=O)cn2)cc1` [2-(4-Thiomethylphenyl)pyridine-5-carboxamide], the pKi is 4.45.

Turning to `NC(=O)c1ccnc(-c2ccc(OC(F)(F)F)cc2)c1` [2-(4-Trifluoromethoxyphenyl)pyridine-4-carboxamide], the pKi is 4.61. For `NC(=O)c1ccc(-c2ccc(OC(F)(F)F)cc2)nc1` [2-(4-Trifluoromethoxyphenyl)pyridine-5-carboxamide], the pKi is 4.47. The same measure for `NC(=O)c1ccc(-c2ccc(C(F)(F)F)cc2)nc1` [2-(4-Trifluoromethylphenyl)pyridine-5-carboxamide]: 4.61; for `CCOc1ccc(-c2cc(C(N)=O)ccn2)cc1` [2-(4-ethoxyphenyl)pyridine-4-carboxamide, 2-(4-Ethoxyphenyl)pyridine-4-carboxamide]: 4.83. As for `CCOc1ccc(-c2ccc(C(N)=O)cn2)cc1` [2-(4-ethoxyphenyl)pyridine-5-carboxamide, 2-(4-Ethoxyphenyl)pyridine-5-carboxamide], the figure is 4.53. The same measure for `CC(C)c1ccc(-c2cc(C(N)=O)ccn2)cc1` [2-(4-i-Propylphenyl)pyridine-4-carboxamide]: 4.41; for `CCCCc1ccc(-c2cc(C(N)=O)ccn2)cc1` [2-(4-n-Butylphenyl)pyridine-4-carboxamide]: 4.48; for `CCCCc1ccc(-c2ccc(C(N)=O)cn2)cc1` [2-(4-n-Butylphenyl)pyridine-5-carboxamide]: 4.61. Consider `CC(C)(C)c1ccc(-c2cc(C(N)=O)ccn2)cc1` [2-(4-tert-Butylphenyl)pyridine-4-carboxamide], for which the pKi is 4.27. `CC(C)(C)c1ccc(-c2ccc(C(N)=O)cn2)cc1` [2-(4-tert-Butylphenyl)pyridine-5-carboxamide]: the pKi was 4.49. As for `O=C(NCCN1CCCCC1)c1ccc(-c2ccc(Oc3ccc(F)cc3)cc2)nc1` [2-[4-(4-Fluorophenoxy)phenyl]pyridine 5-carboxylic acid 2-(N-piperidinyl)ethylamide], the figure is 6.02. The same measure for `NC(=O)c1cccnc1-c1ccc(Oc2ccc(F)cc2)cc1` [2-[4-(4-Fluorophenoxy)phenyl]pyridine-3-carboxamide]: 4.87. On to `NC(=O)c1ccnc(-c2ccc(Oc3ccc(F)cc3)cc2)c1` [2-[4-(4-Fluorophenoxy)phenyl]pyridine-4-carboxamide], for which the pKi was 5.16.

Turning to `NC(=O)c1cncc(-c2ccc3ccccc3c2)c1` [5-(2-naphthyl)pyridine-3-carboxamide, 5-(2-Naphthyl)pyridine-3-carboxamide], the pKi was 4.45. In the case of `COc1ccc(-c2cncc(C(N)=O)c2)cc1` [5-(4-Methoxyphenyl)pyridine-3-carboxamide], the pKi was 4.26. Turning to `NC(=O)c1cncc(-c2ccc(Oc3ccccc3)cc2)c1` [5-(4-Phenoxyphenyl)pyridine-3-carboxamide], the pKi was 5.27. The same measure for `CSc1ccc(-c2cncc(C(N)=O)c2)cc1` [5-(4-Thiomethylphenyl)pyridine-3-carboxamide]: 4.54; for `NC(=O)c1cncc(-c2ccc(OC(F)(F)F)cc2)c1` [5-(4-Trifluoromethoxyphenyl)pyridine-3-carboxamide]: 4.60; for `NC(=O)c1cncc(-c2ccc(C(F)(F)F)cc2)c1` [5-(4-Trifluoromethylphenyl)pyridine-3-carboxamide]: 4.64. As for `CCOc1ccc(-c2cncc(C(N)=O)c2)cc1` [5-(4-ethoxyphenyl)pyridine-3-carboxamide, 5-(4-Ethoxyphenyl)pyridine-3-carboxamide], the figure is 4.44. In the case of `CCCCc1ccc(-c2cncc(C(N)=O)c2)cc1` [5-(4-n-Butylphenyl)pyridine-3-carboxamide], the pKi is 4.96. Regarding `CC(C)(C)c1ccc(-c2cncc(C(N)=O)c2)cc1` [5-(4-tert-Butylphenyl)pyridine-3-carboxamide], the pKi is 4.73. As to `O=C(NCCN1CCCCC1)c1cncc(-c2ccc(Oc3ccc(F)cc3)cc2)c1` [5-[4-(4-fluorophenoxy)phenyl]pyridine 3-carboxylic acid 2-(N-piperidinyl)ethylamide], the pKi was 6.11.
